From ChEMBL document CHEMBL1130002, “Synthesis and biological evaluation of the 1,5-diarylpyrazole class of cyclooxygenase-2 inhibitors: identification of 4-[5-(4-methylphenyl)-3-(trifluoromethyl)-1H-pyrazol-1-yl]benze nesulfonamide (SC-58635, celecoxib)” (J Med Chem, 1997)

Experiments:
Rattus norvegicus [1] = species on record: Rattus norvegicus; assay: animal or person; assay type: functional
Rattus norvegicus [2] = species on record: Rattus norvegicus; assay: animal or person; conditions: read-out: Inhibition
Description: Percent inhibition was determined in vivo in male Dawley rats at a dose of 10 mg/kg by rat carrageenan-induced hyperalgesia assay

in vivo [3] = conditions: male, rat, iv, 10 mg/kg
Rattus norvegicus [4] = species on record: Rattus norvegicus; assay: animal or person; assay type: functional; remark: listed apart in the source
Description: Effective dose was determined in vivo in male Dawley rats by rat carrageenan-induced hyperalgesia assay

Rattus norvegicus [5] = species on record: Rattus norvegicus; assay: animal or person; assay type: functional; remark: listed apart in the source
Description: Effective dose was determined in vivo in male lewis rats by rat adjuvant-induced arthritis assay

Rattus norvegicus [6] = species on record: Rattus norvegicus; assay type: functional, Stomach
Description: Concentration at which gastric damage will occur was determined in rat

Rattus norvegicus [7] = species on record: Rattus norvegicus; assay: animal or person; assay type: functional; remark: listed apart in the source
in vivo [8] = conditions: male, rat, po, 20 mg/kg
in vivo [9] = conditions: male, rat, po, 10 mg/kg
in vivo [10] = conditions: male, rat, po, 10 mg/kg; remark: listed apart in the source

Row | half-life (in vivo [3]) [h] | Compound | ED50 (Rattus norvegicus [1]) [mg/kg] | ED50 (Rattus norvegicus [4]) [mg/kg] | ED50 (Rattus norvegicus [5]) [mg/kg] | further results
1 |  | CN1C(C(=O)Nc2ccccn2)=C(O)c2ccccc2S1(=O)=O [PIROXICAM] | 2.4 |  |  | inhibition in vivo at 10 mg/kg (Rattus norvegicus [2]): 52%
2 | 221 | CS(=O)(=O)c1ccc(-n2nc(C(F)(F)F)cc2-c2ccc(F)cc2)cc1 [SC-58125] | 10.5 | 58.3 | 0.41 | 
3 |  | COc1ccc2cc([C@H](C)C(=O)O)ccc2c1 [NAPROXEN] | 1.6 |  |  | inhibition in vivo at 10 mg/kg (Rattus norvegicus [2]): 66%; Ulceration (Rattus norvegicus [6]): 255 mg/kg
4 | 4.5 | NS(=O)(=O)c1ccc(-n2nc(C(F)F)cc2-c2ccc(Cl)cc2)cc1 | 13 | 7.7 | 0.63 | 
5 |  | COc1ccc(-c2cc(C(F)F)nn2-c2ccc(S(N)(=O)=O)cc2)cc1 | 13.7 | 36 | 0.01 | 
6 |  | NS(=O)(=O)c1ccc(-n2nc(C(F)(F)F)cc2-c2ccc(Cl)cc2)cc1 | 5.4 |  | 0.07 | ED50 (Rattus norvegicus [7]): 6.6 mg/kg; half-life (in vivo [8]): 117 h
7 | 3.5 | Cc1ccc(-c2cc(C(F)(F)F)nn2-c2ccc(S(N)(=O)=O)cc2)cc1 [CELECOXIB] | 7.1 | 34.5 | 0.37 | 
8 |  | Cc1ccc(-c2cc(C(F)F)nn2-c2ccc(S(N)(=O)=O)cc2)cc1 | 2.4 | 37.3 | 0.35 | half-life (in vivo [9]): 3.3 h
9 | 3.5 | COc1ccc(-c2cc(C(F)F)nn2-c2ccc(S(N)(=O)=O)cc2)cc1F [DERACOXIB] | 18.6 | 33 | 0.05 | 
10 |  | NS(=O)(=O)c1ccc(-n2nc(C(F)(F)F)c(Cl)c2-c2ccc(Cl)cc2)cc1 | 8.8 |  | 0.006 | 
11 |  | COc1ccc(-c2cc(C(F)(F)F)nn2-c2ccc(S(N)(=O)=O)cc2)cc1 |  |  |  | half-life (in vivo [10]): 5.6 h
12 |  | COc1ccc2c(c1)c(CC(=O)O)c(C)n2C(=O)c1ccc(Cl)cc1 [INDOMETHACIN] | 1.15 | 4.1 | 0.11 | Ulceration (Rattus norvegicus [6]): 7 mg/kg
13 |  | N#Cc1cc(-c2ccc(F)cc2)n(-c2ccc(S(N)(=O)=O)cc2)n1 | 7.5 | 67.1 | 0.51 | 
